From patent EP0014223A1, “Quaternary aminoacetic anilides, herbicidal compositions containing them and method for influencing plant growth” (CIBA-GEIGY AG, priority 1979, dated 1980)
Read-outs that look alike come from different tables or passages of the source.

Legend:
[1] = Solubility of the product; assay type: physicochemical
Procedure: (§1) 14,3 g (0,06 mole) of pyrrolidinoacetic acid 3-chloro-anilide are dissolved in 50 ml of ethyl acetate and then 9,4 g (0,078 mole) of allyl bromide are added. The reaction mixture is refluxed for 3 hours and the quaternised end product initially separates out as an oil which chrystallises after a brief time.After filtration with suction, washing with ethyl acetate and drying in vacuo at 50°C, 21,5 g (99,5% of theory) of the quaternary allyl pyrrolidino bromide of the formula [drawing 3] are obtained. Meting point: 144-147°C. The product is colourless, soluble in water (3,7%) and methanol (30%) and stable against hydrolysis in all pH-ranges from 3 to 10.

[2] = Stability against hydrolysis; assay type: physicochemical; settings: all pH-ranges from 3 to 10
Procedure: as §1

[3] = tested on: Soya plants of the variety "Hark"; experiment: Inhibition of the vegetative growth and yield increase of soya plants; assay type: in vivo; settings: for Inhibition rating: 5-trifoliate leaf stage, 4 weeks after application, linear rating 1-9; for % increase of pods A (number of pods) / % increase of pods B (weight of pods): versus untreated control plants
Procedure: Soya plants of the variety "Hark" were reared in earthenware pots and sprayed at the 5-trifoliate leaf stage with aqueous preparations of the active substance of the Example. The active substance concentrations in the spray broth were 500, 100 and 50 ppm respectively. The plant growth was evaluated 4 weeks after application in accordance with the following linear rating: • 1 = strong inhibition (no growth from the time of application) • 9 = no inhibition (growth as untreated controls)
The yield increase was evaluated at the sime time in percent increase of the pods when compared with the yield of pods obtained with untreated control plants.
Value A expresses the % increase in number of pods Value B express the % increase in weight of pods.

[4] = tested on: Chrysanthemum variety "Aglow"; experiment: Biological tests on chrysanthemums, height reduction and delay in flowering; assay type: in vivo; settings: foliar spray
Procedure: (§2) In these tests chrysanthemum varieties were used which, on account of their strong growth, can only be reared as pot plants in combination with growth inhibitors.
(§3) About 25 days after potting (14 days after pinching) the plants were sprayed with aqueous preparations of the active substance of the Example and with Alar (known inhibitior for comparison). The growth in height of the plants was measured after three different periods (see table) and the growth inhibition is expressed in percent of the height measured on untreated plants (check = 0% reduction).
(§4) The delay in flowering was evaluated as follows: • ^* = 3-4 days delay DAA = Days after application • ^** = 4-7 days delay

[5] = tested on: Chrysanthemum variety "Golden Anne"; experiment: as above; assay type: in vivo; settings: foliar spray
Procedure: as §2, §3, §4

[6] = tested on: Chrysanthemum variety "Regal Anne"; experiment: as above; assay type: in vivo
Procedure: as §2, §3, §4

[7] = tested on: Chrysanthemum variety "Wedgewood"; experiment: as above; assay type: in vivo; settings: foliar spray
Procedure: as §2, §3, §4

chrysanthemum varieties = experiment: Biological tests on chrysanthemums, summary over all varieties; assay type: in vivo; settings: depending on the variety; in sufficient water to wet all the foliage
Procedure: as §2, §3
Depending on the variety the optimal growth inhibition (20 to 35%) was obtained with rates between 125-250 ppm of the active ingredient of the Example in sufficient water to wet all the foliage. With one variety a soil drench application was also performed.

chrysanthemums = experiment: Trials under practical conditions on chrysanthemums; assay type: in vivo; settings: independent of environmental conditions
From the text: This inhibition is independent of environmental conditions (e.g. it is not light-dependent). Depending on the applied rate, any desired degree of growth inhibition can be obtained.

[8] = tested on: Chrysanthemum variety "Regal Anne"; experiment: Biological tests on chrysanthemums, height reduction and delay in flowering; assay type: in vivo; settings: Soil drench, 250 ppm

Q: Which solubility ([1]; methanol, organic solvent or mixture, read-out: soluble in methanol) does the source give for `C=CC[N+]1(CC(=O)Nc2cccc(Cl)c2)CCCC1` [B] here?
A: 300 mg/mL

Q: And the solubility ([1]; water, read-out: soluble in water)?
A: 37 mg/mL

Q: And the stable against hydrolysis [2]?
A: stable

Q: What about the Inhibition rating ([3]; 50 ppm spray) of the same molecule?
A: 6

Q: And the “% increase of pods A (number of pods)” value ([3]; 50ppm)?
A: 45%

Q: What about the “% increase of pods B (weight of pods)” value ([3]; 50ppm) of the same molecule?
A: 43%

Q: And the Inhibition rating ([3]; 100 ppm spray)?
A: 7

Q: And the “% increase of pods A (number of pods)” value ([3]; 100 ppm)?
A: 22%

Q: What about the “% increase of pods B (weight of pods)” value ([3]; 100 ppm) of the same molecule?
A: 11%

Q: What about the Inhibition rating ([3]; 500 ppm spray) of the same molecule?
A: 6

Q: And the “% increase of pods A (number of pods)” value ([3]; 500 ppm)?
A: 2%

Q: And the “% increase of pods B (weight of pods)” value ([3]; 500 ppm)?
A: 0%

Q: And the delay in flowering ([4]; 125 ppm)?
A: * (^* = 3-4 days delay)

Q: What about the “height reduction against check” value ([4]; 125 ppm, 14 DAA) of the same molecule?
A: 0%

Q: And the “height reduction against check” value ([4]; 125 ppm, 32 DAA)?
A: 0%

Q: What about the “height reduction against check” value ([4]; 125 ppm, 39 DAA) of the same molecule?
A: 10%

Q: And the delay in flowering ([4]; 250 ppm)?
A: * (^* = 3-4 days delay)

Q: And the “height reduction against check” value ([4]; 250 ppm, 14 DAA)?
A: 10%

Q: And the “height reduction against check” value ([4]; 250 ppm, 32 DAA)?
A: 10%

Q: What about the “height reduction against check” value ([4]; 250 ppm, 39 DAA) of the same molecule?
A: 25%

Q: What about the “height reduction against check” value ([4]; 500 ppm, 14 DAA) of the same molecule?
A: 15%

Q: What about the “height reduction against check” value ([4]; 500 ppm, 32 DAA) of the same molecule?
A: 25%

Q: And the “height reduction against check” value ([4]; 500 ppm, 39 DAA)?
A: 30%

Q: And the delay in flowering ([5]; 125 ppm)?
A: * (^* = 3-4 days delay)

Q: And the “height reduction against check” value ([5]; 125 ppm, 14 DAA)?
A: 10%

Q: And the “height reduction against check” value ([5]; 125 ppm, 32 DAA)?
A: 30%

Q: What about the “height reduction against check” value ([5]; 125 ppm, 39 DAA) of the same molecule?
A: 20%

Q: And the delay in flowering ([5]; 250 ppm)?
A: ** (^** = 4-7 days delay)

Q: What about the “height reduction against check” value ([5]; 250 ppm, 14 DAA) of the same molecule?
A: 20%

Q: And the “height reduction against check” value ([5]; 250 ppm, 32 DAA)?
A: 35%

Q: What about the “height reduction against check” value ([5]; 250 ppm, 39 DAA) of the same molecule?
A: 30%

Q: And the delay in flowering ([5]; 500 ppm)?
A: ** (^** = 4-7 days delay)

Q: What about the “height reduction against check” value ([5]; 500 ppm, 14 DAA) of the same molecule?
A: 30%

Q: What about the “height reduction against check” value ([5]; 500 ppm, 32 DAA) of the same molecule?
A: 40%

Q: What about the “height reduction against check” value ([5]; 500 ppm, 39 DAA) of the same molecule?
A: 35%

Q: What about the “height reduction against check” value ([6]; Soil drench, 250 ppm, 30 DAA) of the same molecule?
A: 50%

Q: What about the “height reduction against check” value ([6]; Soil drench, 250 ppm, 55 DAA) of the same molecule?
A: 50%

Q: What about the delay in flowering ([6]; foliar spray, 125 ppm) of the same molecule?
A: * (^* = 3-4 days delay)

Q: And the “height reduction against check” value ([6]; foliar spray, 125 ppm, 11 DAA)?
A: 10%

Q: And the “height reduction against check” value ([6]; foliar spray, 125 ppm, 30 DAA)?
A: 25%

Q: And the “height reduction against check” value ([6]; foliar spray, 125 ppm, 55 DAA)?
A: 25%

Q: And the delay in flowering ([6]; foliar spray, 250 ppm)?
A: * (^* = 3-4 days delay)

Q: And the “height reduction against check” value ([6]; foliar spray, 250 ppm, 11 DAA)?
A: 25%

Q: What about the “height reduction against check” value ([6]; foliar spray, 250 ppm, 30 DAA) of the same molecule?
A: 50%

Q: And the “height reduction against check” value ([6]; foliar spray, 250 ppm, 55 DAA)?
A: 25%

Q: What about the delay in flowering ([6]; foliar spray, 500 ppm) of the same molecule?
A: * (^* = 3-4 days delay)

Q: And the “height reduction against check” value ([6]; foliar spray, 500 ppm, 11 DAA)?
A: 25%

Q: And the “height reduction against check” value ([6]; foliar spray, 500 ppm, 30 DAA)?
A: 60%

Q: And the “height reduction against check” value ([6]; foliar spray, 500 ppm, 55 DAA)?
A: 40%

Q: What about the delay in flowering ([6]; foliar spray, 1000 ppm) of the same molecule?
A: * (^* = 3-4 days delay)

Q: What about the “height reduction against check” value ([6]; foliar spray, 1000 ppm, 11 DAA) of the same molecule?
A: 25%

Q: What about the “height reduction against check” value ([6]; foliar spray, 1000 ppm, 30 DAA) of the same molecule?
A: 60%

Q: And the “height reduction against check” value ([6]; foliar spray, 1000 ppm, 55 DAA)?
A: 40%

Q: And the delay in flowering ([6]; foliar spray, 2000 ppm)?
A: ** (^** = 4-7 days delay)

Q: What about the “height reduction against check” value ([6]; foliar spray, 2000 ppm, 11 DAA) of the same molecule?
A: 40%

Q: What about the “height reduction against check” value ([6]; foliar spray, 2000 ppm, 30 DAA) of the same molecule?
A: 75%

Q: What about the “height reduction against check” value ([6]; foliar spray, 2000 ppm, 55 DAA) of the same molecule?
A: 50%

Q: What about the delay in flowering ([7]; 125 ppm) of the same molecule?
A: * (^* = 3-4 days delay)

Q: And the “height reduction against check” value ([7]; 125 ppm, 14 DAA)?
A: 10%

Q: And the “height reduction against check” value ([7]; 125 ppm, 32 DAA)?
A: 10%

Q: What about the “height reduction against check” value ([7]; 125 ppm, 39 DAA) of the same molecule?
A: 20%

Q: And the delay in flowering ([7]; 250 ppm)?
A: * (^* = 3-4 days delay)

Q: What about the “height reduction against check” value ([7]; 250 ppm, 14 DAA) of the same molecule?
A: 15%

Q: And the “height reduction against check” value ([7]; 250 ppm, 32 DAA)?
A: 15%

Q: What about the “height reduction against check” value ([7]; 250 ppm, 39 DAA) of the same molecule?
A: 25%

Q: And the delay in flowering ([7]; 500 ppm)?
A: * (^* = 3-4 days delay)

Q: What about the “height reduction against check” value ([7]; 500 ppm, 14 DAA) of the same molecule?
A: 15%

Q: What about the “height reduction against check” value ([7]; 500 ppm, 32 DAA) of the same molecule?
A: 25%

Q: And the “height reduction against check” value ([7]; 500 ppm, 39 DAA)?
A: 25%

Q: What about the “rates giving the optimal growth inhibition (20 to 35%)” value (chrysanthemum varieties) of the same molecule?
A: 125-250 ppm

Q: What about the “inhibition of internode growth” value (chrysanthemums) of the same molecule?
A: uniform and reproducible inhibition of internode growth

Q: And the delay in flowering [8]?
A: ** (^** = 4-7 days delay)

Q: And the “height reduction against check” value ([8]; 11 DAA)?
A: 25%

Q: With `CN(C)NC(=O)CCC(=O)O` [A, succinic acid mono-N-dimethylhydrazide, reference compound] as the molecule, how does the delay in flowering ([4]; 3400 ppm) read?
A: * (^* = 3-4 days delay)

Q: And the “height reduction against check” value ([4]; 3400 ppm, 14 DAA)?
A: 20%

Q: And the “height reduction against check” value ([4]; 3400 ppm, 32 DAA)?
A: 30%

Q: And the “height reduction against check” value ([4]; 3400 ppm, 39 DAA)?
A: 25%

Q: And the delay in flowering ([5]; 3400 ppm)?
A: * (^* = 3-4 days delay)

Q: What about the “height reduction against check” value ([5]; 3400 ppm, 14 DAA) of the same molecule?
A: 30%

Q: What about the “height reduction against check” value ([5]; 3400 ppm, 32 DAA) of the same molecule?
A: 30%

Q: And the “height reduction against check” value ([5]; 3400 ppm, 39 DAA)?
A: 25%

Q: And the delay in flowering ([6]; foliar spray, 3400 ppm)?
A: * (^* = 3-4 days delay)

Q: What about the “height reduction against check” value ([6]; foliar spray, 3400 ppm, 11 DAA) of the same molecule?
A: 40%

Q: What about the “height reduction against check” value ([6]; foliar spray, 3400 ppm, 30 DAA) of the same molecule?
A: 40%

Q: What about the “height reduction against check” value ([6]; foliar spray, 3400 ppm, 55 DAA) of the same molecule?
A: 25%

Q: And the delay in flowering ([7]; 3400 ppm)?
A: * (^* = 3-4 days delay)

Q: What about the “height reduction against check” value ([7]; 3400 ppm, 14 DAA) of the same molecule?
A: 30%

Q: And the “height reduction against check” value ([7]; 3400 ppm, 32 DAA)?
A: 30%

Q: What about the “height reduction against check” value ([7]; 3400 ppm, 39 DAA) of the same molecule?
A: 25%
